Laboratory results: patent US6365604B1, “Antipsychotic substituted piperidine derivatives” (Akzo Nobel NV, priority 1997, dated 2002)
Where two headings read alike, the source gives them in different places.

Columns and labels:
[1] = test system: climbing behaviour in mice, induced by apomorphine; test: Apomorphine climbing test (ACT) in mice; type: in vivo; conditions: test compound s.c., 0.75 mg/kg apomorphine HCl s.c. after 30 min, climbing scored at 10 and 20 min
Excerpt: The ability of dopamine receptor antagonists to inhibit the behavioural effects in rodents caused by dopamine agonists such as apomorphine is a well established criterion for predicting the antipsychotic efficacy of these drugs in man (see e.g. W. C. Bowman and M. J. Rand, Textbook of Pharmacology, 2nd ed., 1980, 15, 6). A particularly relevant test in this respect is the apomorphine climbing test (ACT) which measures the ability of a dopamine antagonist to inhibit the climbing behaviour in mice, induced by the subcutaneous or oral administration of apomorphine. Activity in this test, following systemic and oral administration, has been widely used as a predictor of antipsychotic activity i.e. anti-schizophrenic activity (see e.g. J. T Strupczewski et.al., J. Med. Chem., 1995, 38, 1119). Mice treated with apomorphine HCl tend to adopt a vertical position along the wall of a wire mesh cylinder, standing or climbing. This climbing behaviour is considered to be elicited by apomorphine-mediated stimulation of dopamine receptors. […] Test compounds which modulate this climbing behaviour may have antipsychotic activity. The various treatments are randomly distributed over the mice. Each experiment consists of 1+n treatment groups: 1 being a control group of 12 mice receiving apomorphine and vehicle subcutaneously or being a control group of 12 mice receiving apomorphine subcutaneously and vehicle orally; n being (usually 4) compound groups of 12 mice receiving apomorphine and test compound subcutaneously or being compound groups of 12 mice receiving apomorphine subcutaneously and test compound orally.
Experiments are performed in 3 runs of 20 mice each. […]
At 10 min after the treatment with apomorphine the climbing behaviour of each mouse is observed and expressed as a score, according to the following grade: […]
At 20 min after the treatment with apomorphine the climbing behaviour is observed and scored again. For each treatment group the mean score per mouse is determined. […] The final result per group is expressed as the percentage over the control group. […]

catalepsy in rats [2] = conditions: rat, in vivo
Description: (§1) Male Wistar rats (100-125 g, Olac UK) were used for catalepsy experiments. Catalepsy was assessed as described previously (Broekkamp et al, Naunyn-Schmiedeberg's Arch. Pharmacol. 338, 191 1988). Briefly, rats were tested in 6 different observation trials in which the animals were placed in abnormal postures and scored positively with one point for maintaining the imposed posture for 10 s. The imposed postures were: vertical clinging to a grid, upright standing with a high support for the front paws, extension of hindlegs, placement on back, placement of spatula in the mouth and rotation in a wire mesh cylinder.
(§2) Theoretically a maximum score of 6 can be reached. Catalepsy was assessed at 60 and 120 minutes after drug administration. The data were evaluated by 2 way ANOVAR followed by a Newman Kools post hoc test and ED50 values calculated (Table II).

catalepsy in rats [3] = test: Catalepsy in rats; conditions: male Wistar rats; catalepsy assessed at 60 and 120 minutes after drug administration
Description: as §1, §2

| SMILES | melting point | ACT(ED50) [1] | also measured |
| --- | --- | --- | --- |
| CCc1csc(C(=C2CCN(CCCC(=O)N3CCCC3)CC2)c2ccc(F)cc2)c1.Cl.Cl | 167.4 °C |  |  |
| Cc1csc(C(=C2CCN(CCCNC(=O)c3ccccc3)CC2)c2ccc(F)cc2)c1.Cl | 95 to 97 °C |  |  |
| Cc1ccc(C(=O)NCCN2CCC(=C(c3ccc(F)cc3)c3cc(C)cs3)CC2)cc1.O=C(O)C(=O)O | 189 to 191 °C |  |  |
| Cc1ccc(C(=O)N(C)CCN2CCC(=C(c3ccc(F)cc3)c3cc(C)cs3)CC2)cc1 | 114 to 116 °C |  |  |
| Cc1csc(C(=C2CCN(CCNC(=O)C3CC3)CC2)c2ccc(F)cc2)c1.O=C(O)C(=O)O | 98 to 101 °C |  |  |
| Cc1csc(C(=C2CCN(CCCC(=O)N3CCCCC3)CC2)c2ccc(F)cc2)c1.O=C(O)C(=O)O [Compound 2l, 1-[4-[4-[(4-fluorophenyl)(4-methylthien-2-yl)methylene]piperidin-1-yl]-1-oxobutyl]-piperidine (1:1) ethanedicarboxylate] |  | 0.3 mg/kg |  |
| Cc1csc(C(=C2CCN(CCCC(=O)N3CCCC3)CC2)c2ccc(F)cc2)c1.Cl.Cl [Compound 2m, 1-[4-[4-[(4-fluorophenyl)(4-methylthien-2-yl)methylene]piperidin-1-yl]-1-oxobutyl]-pyrrolidine.dihydrochloride] |  | 0.14 mg/kg | CATR (ED50) (catalepsy in rats [2]): >7 mg/kg |
| Cc1csc(C(=C2CCN(CCCC(=O)N3CCCCC3)CC2)c2cccc(F)c2)c1.Cl [Compound 2n, 1-[4-[4-[(3-fluorophenyl)(4-methylthien-2-yl)methylene]piperidin-1-yl]-1-oxobutyl]-piperidine.hydrochloride] |  | 0.34 mg/kg | CATR (ED50) (catalepsy in rats [3]): >17 mg/kg |
